Assay: xn = mol fraction of the nth substance listed

CC[N+](CC)(CC)CC.F[B-](F)(F)F + CC#N
100 kPa
Settings	electrical conductivity [S/m]	viscosity [mPa·s]
293.15 K, x1 = 0.004202	–	0.42
293.15 K, x1 = 0.008244	–	0.438
293.15 K, x1 = 0.01214	–	0.455
293.15 K, x1 = 0.0162	–	0.474
293.15 K, x1 = 0.02	2.88	–
293.15 K, x1 = 0.0201	–	0.484
293.15 K, x1 = 0.02405	–	0.506
293.15 K, x1 = 0.02791	–	0.531
293.15 K, x1 = 0.0301	3.6	–
293.15 K, x1 = 0.03183	–	0.55
293.15 K, x1 = 0.03568	–	0.573
293.15 K, x1 = 0.03943	–	0.593
293.15 K, x1 = 0.0499	4.6	–
293.15 K, x1 = 0.0698	5.04	–
293.15 K, x1 = 0.08	5.32	–
293.15 K, x1 = 0.1	5.56	–
293.15 K, x1 = 0.1101	5.58	–
298.15 K, x1 = 0.004202	–	0.401
298.15 K, x1 = 0.008244	–	0.417
298.15 K, x1 = 0.01214	–	0.435
298.15 K, x1 = 0.0162	–	0.452
298.15 K, x1 = 0.02	2.99	–
298.15 K, x1 = 0.0201	–	0.46
298.15 K, x1 = 0.02405	–	0.48
298.15 K, x1 = 0.02791	–	0.507
298.15 K, x1 = 0.0301	3.65	–
298.15 K, x1 = 0.03183	–	0.525
298.15 K, x1 = 0.03568	–	0.546
298.15 K, x1 = 0.03943	–	0.566
298.15 K, x1 = 0.0499	4.78	–
298.15 K, x1 = 0.0698	5.24	–
298.15 K, x1 = 0.08	5.59	–
298.15 K, x1 = 0.1	5.85	–
298.15 K, x1 = 0.1101	5.88	–
303.15 K, x1 = 0.004202	–	0.383
303.15 K, x1 = 0.008244	–	0.399
303.15 K, x1 = 0.01214	–	0.415
303.15 K, x1 = 0.0162	–	0.432
303.15 K, x1 = 0.02	3.11	–
303.15 K, x1 = 0.0201	–	0.438
303.15 K, x1 = 0.02405	–	0.457
303.15 K, x1 = 0.02791	–	0.484
303.15 K, x1 = 0.0301	3.74	–
303.15 K, x1 = 0.03183	–	0.501
303.15 K, x1 = 0.03568	–	0.521
303.15 K, x1 = 0.03943	–	0.541
303.15 K, x1 = 0.0499	4.98	–
303.15 K, x1 = 0.0698	5.48	–
303.15 K, x1 = 0.08	5.85	–
303.15 K, x1 = 0.1	6.14	–
303.15 K, x1 = 0.1101	6.18	–
308.15 K, x1 = 0.004202	–	0.367
308.15 K, x1 = 0.008244	–	0.381
308.15 K, x1 = 0.01214	–	0.397
308.15 K, x1 = 0.0162	–	0.413
308.15 K, x1 = 0.02	3.22	–
308.15 K, x1 = 0.0201	–	0.419
308.15 K, x1 = 0.02405	–	0.436
308.15 K, x1 = 0.02791	–	0.463
308.15 K, x1 = 0.0301	3.88	–
308.15 K, x1 = 0.03183	–	0.478
308.15 K, x1 = 0.03568	–	0.497
308.15 K, x1 = 0.03943	–	0.517
308.15 K, x1 = 0.0499	5.18	–
308.15 K, x1 = 0.0698	5.71	–
308.15 K, x1 = 0.08	6.11	–
308.15 K, x1 = 0.1	6.43	–
308.15 K, x1 = 0.1101	6.48	–
313.15 K, x1 = 0.004202	–	0.352
313.15 K, x1 = 0.008244	–	0.365
313.15 K, x1 = 0.01214	–	0.381
313.15 K, x1 = 0.0162	–	0.396
313.15 K, x1 = 0.02	3.33	–
313.15 K, x1 = 0.0201	–	0.4
313.15 K, x1 = 0.02405	–	0.417
313.15 K, x1 = 0.02791	–	0.442
313.15 K, x1 = 0.0301	4.03	–
313.15 K, x1 = 0.03183	–	0.457
313.15 K, x1 = 0.03568	–	0.474
313.15 K, x1 = 0.03943	–	0.494
313.15 K, x1 = 0.0499	5.38	–
313.15 K, x1 = 0.0698	5.95	–
313.15 K, x1 = 0.08	6.36	–
313.15 K, x1 = 0.1	6.72	–
313.15 K, x1 = 0.1101	6.78	–
318.15 K, x1 = 0.004202	–	0.338
318.15 K, x1 = 0.008244	–	0.35
318.15 K, x1 = 0.01214	–	0.365
318.15 K, x1 = 0.0162	–	0.38
318.15 K, x1 = 0.02	3.44	–
318.15 K, x1 = 0.0201	–	0.383
318.15 K, x1 = 0.02405	–	0.399
318.15 K, x1 = 0.02791	–	0.423
318.15 K, x1 = 0.0301	4.17	–
318.15 K, x1 = 0.03183	–	0.437
318.15 K, x1 = 0.03568	–	0.454
318.15 K, x1 = 0.03943	–	0.474
318.15 K, x1 = 0.0499	5.58	–
318.15 K, x1 = 0.0698	6.18	–
318.15 K, x1 = 0.08	6.59	–
318.15 K, x1 = 0.1	7.01	–
318.15 K, x1 = 0.1101	7.08	–
323.15 K, x1 = 0.004202	–	0.326
323.15 K, x1 = 0.008244	–	0.337
323.15 K, x1 = 0.01214	–	0.35
323.15 K, x1 = 0.0162	–	0.364
323.15 K, x1 = 0.02	3.54	–
323.15 K, x1 = 0.0201	–	0.367
323.15 K, x1 = 0.02405	–	0.383
323.15 K, x1 = 0.02791	–	0.405
323.15 K, x1 = 0.0301	4.32	–
323.15 K, x1 = 0.03183	–	0.418
323.15 K, x1 = 0.03568	–	0.435
323.15 K, x1 = 0.03943	–	0.455
323.15 K, x1 = 0.0499	5.77	–
323.15 K, x1 = 0.0698	6.41	–
323.15 K, x1 = 0.08	6.84	–
323.15 K, x1 = 0.1	7.27	–
323.15 K, x1 = 0.1101	7.38	–
328.15 K, x1 = 0.02	3.65	–
328.15 K, x1 = 0.0301	4.46	–
328.15 K, x1 = 0.0499	5.96	–
328.15 K, x1 = 0.0698	6.63	–
328.15 K, x1 = 0.08	7.08	–
328.15 K, x1 = 0.1	7.56	–
328.15 K, x1 = 0.1101	7.68	–
333.15 K, x1 = 0.02	3.75	–
333.15 K, x1 = 0.0301	4.59	–
333.15 K, x1 = 0.0499	6.15	–
333.15 K, x1 = 0.0698	6.86	–
333.15 K, x1 = 0.08	7.33	–
333.15 K, x1 = 0.1	7.83	–
333.15 K, x1 = 0.1101	8.01	–
338.15 K, x1 = 0.02	3.85	–
338.15 K, x1 = 0.0301	4.73	–
338.15 K, x1 = 0.0499	6.34	–
338.15 K, x1 = 0.0698	7.08	–
338.15 K, x1 = 0.08	7.57	–
338.15 K, x1 = 0.1	8.15	–
338.15 K, x1 = 0.1101	8.28	–
343.15 K, x1 = 0.02	3.95	–
343.15 K, x1 = 0.0301	4.86	–
343.15 K, x1 = 0.0499	6.52	–
343.15 K, x1 = 0.0698	7.29	–
343.15 K, x1 = 0.08	7.8	–
343.15 K, x1 = 0.1	8.43	–
343.15 K, x1 = 0.1101	8.57	–
348.15 K, x1 = 0.02	4.04	–
348.15 K, x1 = 0.0301	4.99	–
348.15 K, x1 = 0.0499	6.7	–
348.15 K, x1 = 0.0698	7.51	–
348.15 K, x1 = 0.08	8.04	–
348.15 K, x1 = 0.1	8.73	–
348.15 K, x1 = 0.1101	8.84	–

CCCC[n+]1ccn(C)c1.F[P-](F)(F)(F)(F)F + OCC(F)(F)F
101 kPa, x2 = 0
Settings	viscosity [mPa·s]
278.15 K	1165
283.15 K	774
288.15 K	533
293.15 K	378
298.15 K	274
303.15 K	203
308.15 K	154
313.15 K	119
318.15 K	93.5
323.15 K	74.6
328.15 K	60.4
333.15 K	49.5

CCCC[P+](CCCC)(CCCC)CCCC.[O-]c1ccccn1 + O=C=O
Settings	viscosity [mPa·s]
293 K, 101 kPa, x2 = 0.5475	474

CCCCCCO + CCCC[n+]1ccn(C)c1.O=S(=O)([N-]S(=O)(=O)C(F)(F)F)C(F)(F)F
298 K, 100 kPa
Settings	electrical conductivity [S/m]	viscosity [mPa·s]
x2 = 0	–	4.502
x2 = 0.6	0.5605	–
x2 = 0.7	0.491	26.59
x2 = 0.8	0.4635	–
x2 = 0.8006	–	32.43
x2 = 0.899	–	40.3
x2 = 0.9	0.427	–

CC(=O)c1ccccc1 + CC[n+]1ccn(C)c1.F[B-](F)(F)F
100 kPa
Settings	viscosity [mPa·s]
293.15 K, x1 = 0.2999	19.7
293.15 K, x1 = 0.4003	16
303.15 K, x1 = 0.094	16.9
303.15 K, x1 = 0.4989	8.9
313.15 K, x1 = 0.8918	2.09
313.15 K, x1 = 0.9498	1.68
323.15 K, x1 = 0.094	9.4
323.15 K, x1 = 0.4003	6.3
323.15 K, x1 = 0.4989	4.73
333.15 K, x1 = 0.0416	9.1
333.15 K, x1 = 0.094	7.5
333.15 K, x1 = 0.4003	5
333.15 K, x1 = 0.8918	1.52
333.15 K, x1 = 0.9498	1.23
333.15 K, x1 = 1	1.09

CN1CCCC1=O + CCCC[n+]1ccn(C)c1.F[B-](F)(F)F
101 kPa, x1 = 1
Settings	viscosity [mPa·s]
298.15 K	1.66
303.15 K	1.49
308.15 K	1.39
313.15 K	1.31
323.15 K	1.174

CCCC[n+]1ccn(C)c1.O=S(=O)([N-]S(=O)(=O)C(F)(F)F)C(F)(F)F + CC1COC(=O)O1
101.3 kPa, x1 = 1
Settings	viscosity [mPa·s]
288.15 K	80.3
308.15 K	33.95
328.15 K	17.98

CC[n+]1ccn(C)c1.O=S(=O)([O-])O + O
viscosity [mPa·s]
Settings	293.15 K	298.15 K	303.15 K	308.15 K	313.15 K	318.15 K
100 kPa, x1 = 0.0005421	1.046	0.929	0.824	0.75	0.678	–
100 kPa, x1 = 0.0009002	1.05	0.94	0.84	0.76	0.69	0.65
100 kPa, x1 = 0.0009056	1.068	0.949	0.843	0.759	0.684	–
100 kPa, x1 = 0.001263	1.073	0.966	0.866	0.78	0.697	–
100 kPa, x1 = 0.001799	1.07	0.95	0.85	0.77	0.7	0.64
100 kPa, x1 = 0.002696	1.08	0.96	0.86	0.78	0.71	0.64
101 kPa, x1 = 0.0006645	1.023	0.93	0.8234	0.7498	0.6736	–
101 kPa, x1 = 0.0007293	1.036	0.943	0.8247	0.7493	0.6893	–
101 kPa, x1 = 0.0009254	1.064	0.943	0.8439	0.7628	0.6829	–

CC#N + CCCC[P+](CC)(CCCC)CCCC.F[B-](F)(F)F
100 kPa, x2 = 0
Settings	viscosity [mPa·s]
293.15 K	0.354
298.15 K	0.338
303.15 K	0.324
308.15 K	0.31
313.15 K	0.298
318.15 K	0.286

Reference: the CheMixHub ionic liquid set
